Source: PubChem BioAssay AID2060510 (Molecular Pharmacology Branch, DTP, NCI, 2025)

System: 439559-082-T-J2-PDC spheroids viability
Assay: Anticancer human tumor 439559-082-T-J2-PDC patient-derived colon adenocarcinoma cell line growth inhibition [GQUAD]
Conditions: for IC50: curve of first compound; for viability, T/C: stronger effect = lower value; active = viability on the fitted dose curve at most 10% of control; inactive = the rest
Outline: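 Multi-cell-type spheroids of tumor cells with HUVEC and mesenchymal stem cells, treated with drug combinations. Concentrations descend in half-log steps from near clinical Cmax, or from 10 microM where Cmax is unknown; viability read-out.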

[1] = second compound 0.0316 µM, first compound 0.0316 µM
[2] = second compound 0.0316 µM, first compound 0.1 µM
[3] = second compound 0.0316 µM, first compound 0.316 µM
[4] = second compound 0.0316 µM, first compound 1 µM
[5] = second compound 0.0316 µM, first compound 3.16 µM
[6] = second compound 0.0316 µM, first compound 10 µM
[7] = second compound 0.1 µM, first compound 0.0316 µM
[8] = second compound 0.1 µM, first compound 0.1 µM
[9] = second compound 0.1 µM, first compound 0.316 µM
[10] = second compound 0.1 µM, first compound 1 µM
[11] = second compound 0.1 µM, first compound 3.16 µM
[12] = second compound 0.1 µM, first compound 10 µM
[13] = second compound 0.316 µM, first compound 0.0316 µM
[14] = second compound 0.316 µM, first compound 0.1 µM
[15] = second compound 0.316 µM, first compound 0.316 µM
[16] = second compound 0.316 µM, first compound 1 µM
[17] = second compound 0.316 µM, first compound 3.16 µM
[18] = second compound 0.316 µM, first compound 10 µM
[19] = second compound 1 µM, first compound 0.0316 µM
[20] = second compound 1 µM, first compound 0.1 µM
[21] = second compound 1 µM, first compound 0.316 µM
[22] = second compound 1 µM, first compound 1 µM
[23] = second compound 1 µM, first compound 3.16 µM
[24] = second compound 1 µM, first compound 10 µM
[25] = second compound 3.16 µM, first compound 0.0316 µM
[26] = second compound 3.16 µM, first compound 0.1 µM
[27] = second compound 3.16 µM, first compound 0.316 µM
[28] = second compound 3.16 µM, first compound 1 µM
[29] = second compound 3.16 µM, first compound 3.16 µM
[30] = second compound 3.16 µM, first compound 10 µM
[31] = second compound 10 µM, first compound 0.0316 µM
[32] = second compound 10 µM, first compound 0.1 µM
[33] = second compound 10 µM, first compound 0.316 µM
[34] = second compound 10 µM, first compound 1 µM
[35] = second compound 10 µM, first compound 3.16 µM
[36] = second compound 10 µM, first compound 10 µM
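Note: spheroids exposed to the agents for 7 days before readout.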
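Throughout, for viability, T/C: percent of luminescence signal in DMSO vehicle wells taken as 100% viability.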

CC1COCCN1c1cc(-c2ccnn2C)c2ccnc(-c3ccn[nH]3)c2n1 (stereo not drawn) + Cc1[nH]c2ccc(F)cc2c1-c1nc2c3cccnc3c3ncccc3c2[nH]1
inactive: viability, T/C [1] 106% | viability, T/C [2] 80.6% | viability, T/C [3] 53.5% | viability, T/C [4] 38.8% | viability, T/C [5] 35.8% | viability, T/C [6] 30.7% | viability, T/C [7] 103% | viability, T/C [8] 77.2% | viability, T/C [9] 45.7% | viability, T/C [10] 36.9% | viability, T/C [11] 40.8% | viability, T/C [12] 34.5% | viability, T/C [13] 101% | viability, T/C [14] 87.4% | viability, T/C [15] 47.8% | viability, T/C [16] 34% | viability, T/C [17] 41.6% | viability, T/C [18] 30.2% | viability, T/C [19] 91.6% | viability, T/C [20] 82% | viability, T/C [21] 46% | viability, T/C [22] 31.9% | viability, T/C [23] 39.6% | viability, T/C [24] 29.8% | viability, T/C [25] 88.2% | viability, T/C [26] 73.5% | viability, T/C [27] 40.6% | viability, T/C [28] 30.3% | viability, T/C [29] 34.1% | viability, T/C [30] 27.4% | viability, T/C [31] 76.1% | viability, T/C [32] 73.5% | viability, T/C [33] 36.8% | viability, T/C [34] 31.6% | viability, T/C [35] 32.8% | viability, T/C [36] 29.6%
209 nM: IC50 (second compound 10 µM)
269 nM: IC50 (second compound 0.1 µM)
427 nM: IC50 (second compound 0.0316 µM)
295 nM: IC50 (second compound 0.316 µM)
276 nM: IC50 (second compound 1 µM)
227 nM: IC50 (second compound 3.16 µM)

CC1COCCN1c1cc(C2(O)CC3CCC(C2)O3)c2cnn(-c3ccn[nH]3)c2n1 (stereo not drawn) + Cc1[nH]c2ccc(F)cc2c1-c1nc2c3cccnc3c3ncccc3c2[nH]1
1450 nM: IC50 (second compound 0.316 µM)
2590 nM: IC50 (second compound 0.1 µM)
863 nM: IC50 (second compound 3.16 µM)
1690 nM: IC50 (second compound 0.0316 µM)
1490 nM: IC50 (second compound 1 µM)
867 nM: IC50 (second compound 10 µM)
inactive: viability, T/C [1] 84.5% | viability, T/C [2] 84.2% | viability, T/C [3] 78.2% | viability, T/C [4] 58.6% | viability, T/C [5] 38.9% | viability, T/C [6] 39.5% | viability, T/C [7] 89.5% | viability, T/C [8] 76.3% | viability, T/C [9] 71.1% | viability, T/C [10] 61.9% | viability, T/C [11] 46.7% | viability, T/C [12] 35.2% | viability, T/C [13] 97.2% | viability, T/C [14] 80.2% | viability, T/C [15] 70.8% | viability, T/C [16] 49.9% | viability, T/C [17] 44.6% | viability, T/C [18] 37.3% | viability, T/C [19] 83.8% | viability, T/C [20] 77.3% | viability, T/C [21] 70.2% | viability, T/C [22] 55% | viability, T/C [23] 40.3% | viability, T/C [24] 33.4% | viability, T/C [25] 85.7% | viability, T/C [26] 67.8% | viability, T/C [27] 63.5% | viability, T/C [28] 51% | viability, T/C [29] 32.8% | viability, T/C [30] 27% | viability, T/C [31] 75.4% | viability, T/C [32] 74.5% | viability, T/C [33] 57.1% | viability, T/C [34] 52.1% | viability, T/C [35] 33.4% | viability, T/C [36] 27.1%

CC1COCCN1c1cc(C2(S(C)(=N)=O)CC2)nc(-c2ccnc3[nH]ccc23)n1 (stereo not drawn) + Cc1[nH]c2ccc(F)cc2c1-c1nc2c3cccnc3c3ncccc3c2[nH]1
inactive: viability, T/C [1] 100% | viability, T/C [2] 92.5% | viability, T/C [3] 103% | viability, T/C [4] 106% | viability, T/C [5] 96.7% | viability, T/C [6] 76.8% | viability, T/C [7] 109% | viability, T/C [8] 104% | viability, T/C [9] 90.9% | viability, T/C [10] 102% | viability, T/C [11] 93.9% | viability, T/C [12] 75.8% | viability, T/C [13] 88.1% | viability, T/C [14] 105% | viability, T/C [15] 99.6% | viability, T/C [16] 104% | viability, T/C [17] 98.5% | viability, T/C [18] 71.3% | viability, T/C [19] 99.9% | viability, T/C [20] 86.8% | viability, T/C [21] 100% | viability, T/C [22] 90.5% | viability, T/C [23] 91.8% | viability, T/C [24] 68.5% | viability, T/C [25] 87.5% | viability, T/C [26] 94.2% | viability, T/C [27] 80.8% | viability, T/C [28] 77.4% | viability, T/C [29] 83.5% | viability, T/C [30] 63.1% | viability, T/C [31] 88% | viability, T/C [32] 87.8% | viability, T/C [33] 80.8% | viability, T/C [34] 74.4% | viability, T/C [35] 80.6% | viability, T/C [36] 64.3%
> 10000 nM: IC50 (second compound 0.0316 µM) | IC50 (second compound 0.1 µM) | IC50 (second compound 0.316 µM) | IC50 (second compound 1 µM) | IC50 (second compound 3.16 µM) | IC50 (second compound 10 µM)

COc1ccc([C@@H](O)c2cc(-c3ncnc4cc(N5CCOCC5)ccc34)c(F)cc2Cl)nn1 + Cc1[nH]c2ccc(F)cc2c1-c1nc2c3cccnc3c3ncccc3c2[nH]1
> 10000 nM: IC50 (second compound 0.0316 µM) | IC50 (second compound 0.1 µM) | IC50 (second compound 0.316 µM) | IC50 (second compound 1 µM) | IC50 (second compound 3.16 µM) | IC50 (second compound 10 µM)
inactive: viability, T/C [1] 97.1% | viability, T/C [2] 98% | viability, T/C [3] 87.8% | viability, T/C [4] 98.1% | viability, T/C [5] 85% | viability, T/C [6] 95.5% | viability, T/C [7] 111% | viability, T/C [8] 99.5% | viability, T/C [9] 89% | viability, T/C [10] 93.3% | viability, T/C [11] 98% | viability, T/C [12] 88.5% | viability, T/C [13] 106% | viability, T/C [14] 93.2% | viability, T/C [15] 92.1% | viability, T/C [16] 86.9% | viability, T/C [17] 83.7% | viability, T/C [18] 75.9% | viability, T/C [19] 99.9% | viability, T/C [20] 101% | viability, T/C [21] 90.5% | viability, T/C [22] 92.6% | viability, T/C [23] 85.8% | viability, T/C [24] 75.6% | viability, T/C [25] 73.1% | viability, T/C [26] 85.1% | viability, T/C [27] 83.2% | viability, T/C [28] 69% | viability, T/C [29] 69.3% | viability, T/C [30] 77.4% | viability, T/C [31] 84.9% | viability, T/C [32] 93.9% | viability, T/C [33] 83.7% | viability, T/C [34] 82% | viability, T/C [35] 74.4% | viability, T/C [36] 80.8%
